Laboratory results: publication PMC3236741 (PLoS ONE, 2011)
Entries after “also recorded” stand apart in the source; their conditions may differ. Marks after values point to notes of the source that are not given here. Values belong to the molecule of their own block, whether it stands above or below them. Peptide text beside a SMILES is read from it.

Columns and labels:
[1] = molecular target: protein A purified polyclonal antibody directed to the COOH-terminus of human Ang-(1-12); test: Binding affinity and cross-reactivity of protein A purified polyclonal Ang-(1-12) antibody (IgG); settings: protein A purified polyclonal antibody (IgG) to human Ang-(1-12); cross-reactivity
Procedure: Left atrial tissues from human cardiac patient were fixed in 4% paraformaldehyde for 24 h and then transferred into 70% ethanol. After dehydration, the tissues were embedded in paraffin and each section was cut in 5-µm thick sections. Immunohistochemistry was performed using well characterized protein A purified polyclonal antibody directed to the COOH-terminus of full length of human Ang-(1-12) sequence [Asp^1-Arg^2-Val^3-Tyr^4-Ile^5-His^6-Pro^7-Phe^8-His^9-Leu^10-Val^11-Ile^12] (AnaSpec, San Jose, CA). The binding affinity and cross-reactivity of protein A purified antibody (IgG) was checked for human Ang-(1-12) and small Ang peptides [Ang I, Ang II and Ang-(1-7)]. […] The antibody was independently used to detect immunoreactive Ang-(1-12) in human atrial tissue using the avidin-biotin horseradish peroxidase techniques as previously reported by our laboratory, [11]. Briefly, slides were deparaffinized in xylene (15 min), subsequently dipped in ethanol (100%, 95% and 75%, respectively) and washed in double distilled water. The clear slides were incubated in 3% hydrogen peroxide to block the endogenous peroxidase. […]

human leukocyte elastase = settings: cited from earlier work
[2] = plasma membrane of six human atrial tissues in 50 mM Tris buffer (pH 8.0) containing 1.5 M NaCl and 1% dimethylsulphoxide; settings: 37°C, up to 180 min
[3] = plasma membrane of six human atrial tissues in 50 mM Tris buffer (pH 8.0) containing 1.5 M NaCl and 1% dimethylsulphoxide, with chymostatin; settings: 37°C, up to 180 min
chymase = molecular target: T1, chymase (Homo sapiens, UniProt P23946); test: Hydrolysis of colorimetric substrate N-suc-AAPF-pNA by human plasma membrane with or without chymostatin; assay type: biochemical; settings: chymostatin 50 µM; 1 mM N-suc-AAPF-pNA; 50 mM Tris pH 8.0, 1.5 M NaCl, 1% DMSO; 37°C, 0–180 min; absorbance 410 nm; six human atrial tissues
T1 construct: hydrolysis of 1 mM N-suc-AAPF-pNA in the plasma membrane of six human atrial tissues; from tissue; host or cells: human left atrial appendage tissue, plasma membrane fraction
T1 sequence (P23946 22-247): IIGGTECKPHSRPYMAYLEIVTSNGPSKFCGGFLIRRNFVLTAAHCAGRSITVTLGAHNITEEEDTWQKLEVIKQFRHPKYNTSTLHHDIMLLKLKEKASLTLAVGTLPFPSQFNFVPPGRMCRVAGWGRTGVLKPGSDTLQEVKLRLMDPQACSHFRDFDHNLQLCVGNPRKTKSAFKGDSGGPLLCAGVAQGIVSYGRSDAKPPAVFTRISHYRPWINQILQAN
Procedure: Chymase activity was also monitored by evaluating the hydrolysis of 1 mM N-suc-AAPF-pNA in the plasma membrane of six human atrial tissues. Briefly, all assays were performed in a total reaction volume of 200 µL in the 96-well microtiter plates containing plasma membranes with or without the presence of chymostatin (chymase inhibitor; 50 µM) as described above in 50 mM Tris buffer (pH 8.0) containing 1.5 M NaCl and 1% dimethylsulphoxide. The increase in absorbance at 410 nm was measured at 37°C for different time points (0–180 min) for the released p-nitroaniline. In addition, Ang II formation from ^125I-Ang-(1-12) was also investigated in the absence and in the presence of TEI-F00806 (100 µM; an orally active chymase-specific inhibitor provided by Teijin Pharma, Tokyo, Japan). Briefly, plasma membranes isolated from human atrial tissue (50 µg per reaction mixture) and ^125I-Ang-(1-12) were incubated in the presence or absence of TEI-F00806 (as described above for chymostatin) for 37°C for 60 min. At the end of incubation, samples were analyzed by HPLC for Ang II formation from ^125I-Ang-(1-12).

[4] = test system: Ang I induced carotid artery vasoconstriction; settings: administration of chymostatin in enalapril-treated SHR rats; ref Becari et al. [30]; cited from earlier work
Source text: A critical role for chymase in accounting for the processing of Ang-(1-12) is reinforced through the corresponding consistency of the chymase activity measured in each of the human samples. Since the atrial tissue employed in these studies was obtained from subjects undergoing cardiac surgery for the treatment of heart rhythm disorders (Table 2), we cannot exclude the possibility that the relatively high chymase activity reflects increased expression of this enzyme in this condition. Although an increase in cardiac chymase activity has been reported in both clinical and experimental forms of h ...

[5] = plasma membrane (50 µg) isolated from human atrial appendage, Minus Lisinopril group; settings: 37°C, up to 60 min
[6] = plasma membrane (50 µg) isolated from human atrial appendage, Minus Chymostatin group; settings: 37°C, up to 60 min
[7] = plasma membrane (50 µg) isolated from human atrial appendage, No RAS inhibitors group; settings: 37°C, up to 60 min
[8] = plasma membrane (50 µg) isolated from human atrial appendage, All RAS inhibitors group; settings: 37°C, up to 60 min
[9] = ^125I-Ang-(1-12) metabolism by plasma membranes from human atrial appendage, HPLC with inline γ-detector; settings: human atrial plasma membrane 50 µg, 1 nmol/L substrate, 15 min pre-incubation, 60 min at 37°C, HPLC γ-detection, mean ± SEM, n = 9
Procedure: Membranes were prepared at 4°C in a manner similar to the approaches previously described by our laboratory [52] and by Urata et al. [26] Frozen atrial tissue (50–100 mg) was homogenized at 4°C in 1 mL PBS (pH 7.4) in a Qiagen TissueLyzer (Valencia, CA). The homogenate was centrifuged at low spin (200 g) for 5 min at 4°C to remove the connective tissues and cell debris. The supernatant was transferred into a new tube and centrifuged at 28,000 g for 20 min at 4°C to collect the plasma membrane. The pellet was resuspended in PBS and centrifuged as described above. Finally, the pellet was resuspended in PBS and stored at −80°C till its use for metabolism studies. The concentration of each cardiac membrane preparation is expressed in terms of protein concentration measured by Bradford Reagent using bovine serum albumin (BSA) as the standard; the results were normalized in terms of per mg protein.
For ^125I-Ang-(1-12) metabolism studies, plasma membranes (50 µg per reaction mixture) were preincubated for 15 min under various combinations of RAS and peptidases inhibitors (50 µM each). After preincubation of plasma membranes with the inhibitors, human ^125I-Ang-(1-12) (1 nmol/L; specific activity 3,900 cpm/fmol) was added to the reaction medium and incubated for an additional 60 min at 37°C. At the end of the incubation time, the reaction was stopped by adding equal volume of 1% phosphoric acid, mixed well, and centrifuged at 28,000 g for 20 min to remove the plasma membrane. […] On the day of HPLC analysis, the samples were filtered before separation by reverse-phase high-performance liquid chromatography. We used a linear gradient from 10% to 50% mobile phase B at a flow rate of 0.35 mL/min at ambient temperature. The solvent system consisted of 0.1% phosphoric acid (mobile phase A) and 80% acetonitriles/0.1% phosphoric acid (mobile phase B). The eluted ^125I products were monitored by an in-line flow-through gamma detector (BioScan Inc., Washington, DC). Products were identified by comparison of retention time of synthetic [^125I] standard peptides and the data were analyzed with Shimadzu LCSolution (Kyoto, Japan) acquisition software.

EC50 [1]: 0.28 ± 0.02 nM
Molecule: angiotensin II (DRVYIHPF; Angiotensin-2; UniProt P01019 25-32, looked up) [Ang II, angiotensin peptide, main metabolic product of ^125I-Ang-(1-12)]

fragment found [2]: p-nitroaniline
Molecule: N-Succinyl-Ala-Ala-Pro-Phe-p-nitroanilide
not cleaved (human leukocyte elastase): not hydrolyzed by human leukocyte elastase
not cleaved [3]: hydrolysis completely blocked in the presence of chymostatin

Molecule: CC(C)C[C@H](NC(=O)[C@@H](NC(=O)N[C@@H](Cc1ccccc1)C(=O)O)[C@@H]1CCN=C(N)N1)C(=O)N[C@H](C=O)Cc1ccccc1 [chymostatin, Chymostatin]
hydrolysis of N-suc-AAPF-pNA by human plasma membrane in the presence of inhibitor (chymase): completely blocked
inhibition of Ang I induced carotid artery vasoconstriction [4]: 80%

binding affinity of the antibody (EC50) [1]: below detection
Molecule: angiotensin-(1-7) [Ang-(1-7)]

fragment found [5]: Ang II, minor
cleaved bond [6]: Phe8-His9, major
fragment found [6]: Ang I, minor
cleaved bond [7]: Phe8-His9, major
fragment found [7]: Ang I, minor
Molecule: H-Asp^1-Arg^2-Val^3-Tyr^4-Ile^5-His^6-Pro^7-Phe^8-His^9-Leu^10-Val^11-Ile^12-OH
fragment found [8]: Ang I, minor; also recorded: Ang II, minor

Percent of ^125I-Ang-(1-12) parent control remained unmetabolized ([9]; All RAS inhibitors (plus lisinopril, SCH39370, MLN-4760, chymostatin; 50 µM each)): 98±7%
Percent of ^125I-Ang-(1-12) parent control remained unmetabolized ([9]; Minus chymostatin (all inhibitors except chymase inhibitor; 50 µM each)): 31±13 ^a %
Percent of ^125I-Ang-(1-12) parent control remained unmetabolized ([9]; Minus lisinopril (all inhibitors except ACE inhibitor; 50 µM each)): 98±5%
Percent of ^125I-Ang-(1-12) parent control remained unmetabolized ([9]; NO RAS inhibitors (only amastatin, bestatin, benzyl succinate, PCMB; 50 µM each)): 22±10 ^a %
Molecule: CC[C@H](C)[C@H](NC(=O)[C@@H](NC(=O)[C@H](CC(C)C)NC(=O)[C@H](Cc1c[nH]cn1)NC(=O)[C@H](Cc1ccccc1)NC(=O)[C@@H]1CCCN1C(=O)[C@H](Cc1c[nH]cn1)NC(=O)[C@@H](NC(=O)[C@H](Cc1ccc(O)cc1)NC(=O)[C@@H](NC(=O)[C@H](CCCNC(=N)N)NC(=O)[C@@H](N)CC(=O)O)C(C)C)[C@@H](C)CC)C(C)C)C(=O)O [Ang-(1-12), angiotensin-(1-12)] (H-DRVYIHPFHLVI-OH)
